Assay results published in patent publication US8946162B2, “Treatment of tumors” (priority 2008, dated 2015).

Legend:
human tumour cell line = test: Suppression of tumour cell growth (cell count in haemocytometer); format: cell-based; details: up to day 17; for cell growth (cell count): culture medium RPMI 1640 10% FCS supplemented with the substance alone (100 nM peptide or 20 μg/ml sACE2), versus control medium
Protocol: A human tumour cell line was sowed at a density of 2.5×10^4 cells/ml in 200 μl RPMI 1640 in 10% FCS in 96-well plates and incubated at 37° C. and 5% CO2. The influence of various active components of the RAS were evaluated using the following test systems. All the analyses were carried out as triple determinations (sACE2=soluble ACE2 without C-terminal membrane domain): • Condition A. Culture medium RPMI 1640 with 10% FCS as control • Condition B. Culture medium supplemented with 100 nM Ang II • Condition C. Culture medium supplemented with 100 nM Ang 1-7 • Condition D. Culture medium supplemented with 20 μg/ml sACE2 • Condition E. Culture medium supplemented with 20 μg/ml sACE2 and […]
Every day 100 μl of medium was removed and replaced by the same volume of fresh specific medium. The cell count was determined on days 2, 3, 6, 8, 10, 13, 15 and 17 by multiple counting in a haemocytometer. A separately prepared test plate was used for each determination.

Ang II [1] = test: Determination of specific ACE2 activity (conversion of Ang II to Ang 1-7, RP-HPLC); format: biochemical
Protocol: Furthermore, both Ang II and Ang 1-7 peaks were recognised and integrated in the chromatograms. The peptide concentrations were determined using calibration curves. Enzymatic conversion and specific enzyme activity were also determined.

[2] = Aggregation of the ACE2 preparation in physiological buffer; format: physicochemical; details: concentrated protein solution in physiological buffer
Excerpt: The dimer-ACE2 preparation produced according to Example 1 is present as a stable, highly pure and concentrated protein solution in physiological buffer and can be stored and administered […].
The ACE2 preparation also has full enzyme activity.

[3] = Terminal half-life measured in various species; format: in vivo; details: including rhesus monkeys
Excerpt: ACE2 is metabolised slowly due to the large, highly branched and complex sugar moiety.

Ang II [4] = details: reaction conditions identical; material expressed in insect cells; cited from earlier work
[5] = 250 ng/ml ACE2, 80 μM Ang II, pH 6.5, 18 minutes at 37° C.

Substance: Asp-Arg-Val-Tyr-Ile-His-Pro-Phe (DRVYIHPF; printed: Asp-Arg-Val-Tyr-Ile-His-Pro-Phe) [Ang II, reference compound]
- cell growth (cell count) (human tumour cell line): distinctly increased cell growth

Substance: Ang 1-7: Effector peptide of the RAS, antagonist of Ang II, formed from Ang II by ACE2 (DRVYIHP; Angiotensin 1-7; UniProt P01019 25-31, looked up) [reference compound]
- cell growth (cell count) (human tumour cell line): reduced cell growth

Substance: ACE2 preparation produced according to Example 1: Soluble section of human ACE2 expressed in CHO, fully N-glycosylated, obtained as a dimer with two Zn2+
- cell growth (cell count) (human tumour cell line): marginally increased growth
- cell growth (cell count) in the presence of Ang II (human tumour cell line; culture medium supplemented with 20 μg/ml sACE2 and […]): reduced cell growth
- catalytic activity kkat based on Ang II conversion (Ang II [1]; [5]): 8.0 ± 0.3 s⁻¹
- catalytic activity kkat in relation to Ang 1-7 conversion (Ang II [1]; [5]): 8.8 ± 0.2 s⁻¹
- higher activity than the figures of Vickers et al. (Ang II [1]; present preparation versus Vickers material): 240%
- aggregation to multimers [2]: does not exhibit any aggregation to multimers
- terminal half-life [3]: at least 10.5 hours

Substance: ACE2 (Vickers et al.): ACE2 of Vickers et al., expressed in insect cells, same amino acid sequence, glycosylated to a considerably lesser extent
- catalytic ACE2 activity published by Vickers et al. (Ang II [4]): 3.5 s⁻¹
